A short description of data set [1]: Stability on incubation with mouse plasma for 8 h (RP-HPLC peak height). The data set is classed as in vitro ADME. The conditions noted are these: mouse, plasma.
Method: The samples were then separated on RP-HPLC and the peak height compared to the value at time=0 hours.
For data set [2] the following is noted: human, in vivo; cited from earlier work.

Square brackets hold non-standard residues; d marks the D form. Peptide text beside a SMILES is read from it.

Compound `CSCC[C@H](NC(=O)[C@H](Cc1ccc(O)cc1)NC(=O)[C@H](CCCCN)NC(=O)[C@H](CO)NC(=O)[C@H](Cc1ccc(O)cc1)NC(=O)[C@H](CC(=O)O)NC(=O)[C@H](CO)NC(=O)[C@@H](NC(=O)[C@H](Cc1ccccc1)NC(=O)[C@@H](NC(=O)CNC(=O)[C@H](CCC(=O)O)NC(=O)[C@@H](C)NC(=O)[C@@H](N)Cc1c[nH]cn1)[C@@H](C)O)[C@@H](C)O)C(=O)N[C@@H](CC(=O)O)C(=O)N[C@@H](CC(N)=O)C(=O)N[C@@H](CCCNC(=N)N)C(=O)N[C@@H](CCCNC(=N)N)C(=O)N[C@@H](C)C(=O)N[C@@H](CCCCN)C(=O)N[C@@H](CC(=O)O)C(=O)N[C@@H](Cc1ccccc1)C(=O)N[C@H](C(=O)N[C@@H](CCC(N)=O)C(=O)N[C@@H](Cc1c[nH]c2ccccc12)C(=O)N[C@@H](CC(C)C)C(=O)N[C@@H](CCSC)C(=O)N[C@@H](CC(N)=O)C(=O)N[C@H](C(=O)N1CCC[C@H]1C(=O)N[C@@H](CO)C(=O)N[C@@H](CO)C(=O)NCC(=O)N[C@@H](C)C(=O)N1CCC[C@H]1C(=O)N1CCC[C@H]1C(=O)N1CCC[C@H]1C(=O)N[C@@H](CO)C(N)=O)[C@@H](C)O)C(C)C` [(D-A^2) dogfish glucagon exendin, (D-A^2) dogfish glucagon exendin end] (H-H[dA]EGTFTSDYSKYMDNRRAKDFVQWLMNTPSSGAPPPS-NH2; N-terminus assumed) came in with a metabolised at 8 h in data set [1] of 18.3%.
In turn, `CSCC[C@H](NC(=O)[C@H](Cc1ccc(O)cc1)NC(=O)[C@H](CCCCN)NC(=O)[C@H](CO)NC(=O)[C@H](Cc1ccc(O)cc1)NC(=O)[C@H](CC(=O)O)NC(=O)[C@H](CO)NC(=O)[C@@H](NC(=O)[C@H](Cc1ccccc1)NC(=O)[C@@H](NC(=O)CNC(=O)[C@H](CCC(=O)O)NC(=O)[C@@H](C)NC(=O)[C@@H](N)Cc1c[nH]cn1)[C@@H](C)O)[C@@H](C)O)C(=O)N[C@@H](CC(=O)O)C(=O)N[C@@H](CC(N)=O)C(=O)N[C@@H](CCCNC(=N)N)C(=O)N[C@@H](CCCNC(=N)N)C(=O)N[C@@H](C)C(=O)N[C@@H](CCCCN)C(=O)N[C@@H](CC(=O)O)C(=O)N[C@@H](Cc1ccccc1)C(=O)N[C@H](C(=O)N[C@@H](CCC(N)=O)C(=O)N[C@@H](Cc1c[nH]c2ccccc12)C(=O)N[C@@H](CC(C)C)C(=O)N[C@@H](CCSC)C(=O)N[C@@H](CC(N)=O)C(=O)N[C@H](C(=O)O)[C@@H](C)O)C(C)C` [(D-Ala^2) dogfish glucagon, (D-A^2) dogfish glucagon] (H-H[dA]EGTFTSDYSKYMDNRRAKDFVQWLMNT-OH; N-terminus and C-terminus assumed) showed a metabolised at 8 h in data set [1] of 40.1%.
As to `CSCC[C@H](NC(=O)[C@H](Cc1ccc(O)cc1)NC(=O)[C@H](CCCCN)NC(=O)[C@H](CO)NC(=O)[C@H](Cc1ccc(O)cc1)NC(=O)[C@H](CC(=O)O)NC(=O)[C@H](CO)NC(=O)[C@@H](NC(=O)[C@H](Cc1ccccc1)NC(=O)[C@@H](NC(=O)CNC(=O)[C@H](CCC(=O)O)NC(=O)[C@H](CO)NC(=O)[C@@H](N)Cc1c[nH]cn1)[C@@H](C)O)[C@@H](C)O)C(=O)N[C@@H](CC(=O)O)C(=O)N[C@@H](CC(N)=O)C(=O)N[C@@H](CCCNC(=N)N)C(=O)N[C@@H](CCCNC(=N)N)C(=O)N[C@@H](C)C(=O)N[C@@H](CCCCN)C(=O)N[C@@H](CC(=O)O)C(=O)N[C@@H](Cc1ccccc1)C(=O)N[C@H](C(=O)N[C@@H](CCC(N)=O)C(=O)N[C@@H](Cc1c[nH]c2ccccc12)C(=O)N[C@@H](CC(C)C)C(=O)N[C@@H](CCSC)C(=O)N[C@@H](CC(N)=O)C(=O)N[C@H](C(=O)O)[C@@H](C)O)C(C)C` [dogfish glucagon, Dogfish glucagon (1-29)] (H-HSEGTFTSDYSKYMDNRRAKDFVQWLMNT-OH; N-terminus and C-terminus assumed), the metabolised at 8 h in data set [1] came out at 38.8%.
As to Glucagon-like peptide-1 [GLP-1], the half-life entry in data set [2] was “less than two”.
